For 45 molecules, Ki results are on record in patent EP4631938A1, “NITROGEN-CONTAINING HETEROCYCLE WITH SEROTONIN RECEPTOR-BINDING ACTIVITY AND CARBOCYCLIC DERIVATIVE” (Shionogi & Co., Ltd, priority 2022, dated 2024).

The target in test [1] is T1, human recombinant 5-HT2C receptor (Homo sapiens, UniProt P28335).
T1 construct: expressed in transfected cells; host or cells: Jump-In HEK cells (membrane preparation)
T1 sequence (P28335 33-458): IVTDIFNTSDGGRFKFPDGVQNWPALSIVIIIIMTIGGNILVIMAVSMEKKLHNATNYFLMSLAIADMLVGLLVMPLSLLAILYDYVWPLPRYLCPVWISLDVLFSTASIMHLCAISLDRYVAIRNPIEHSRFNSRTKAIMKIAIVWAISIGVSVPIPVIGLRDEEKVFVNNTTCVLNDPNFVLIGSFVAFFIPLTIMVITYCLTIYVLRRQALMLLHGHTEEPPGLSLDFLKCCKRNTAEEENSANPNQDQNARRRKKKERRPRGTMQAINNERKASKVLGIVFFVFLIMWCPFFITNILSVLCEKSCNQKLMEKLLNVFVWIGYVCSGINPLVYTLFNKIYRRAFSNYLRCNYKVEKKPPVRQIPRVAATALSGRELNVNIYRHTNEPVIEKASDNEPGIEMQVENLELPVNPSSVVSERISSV
As to the kind of experiment: Test Example 2: 5-HT2C receptor binding inhibition test ([3H]-Mesulergine; non-specific ligand Serotonin HCl). As to conditions: human serotonin 5-HT2C receptor binding activity. Put shortly:
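Ki values come from dose-response curves of [3H]-mesulergine displacement from human 5-HT2C membranes after 2 h at 37°C, scored by scintillation counting of filter-bound radioactivity. Serotonin HCl (500 µmol/L) set non-specific binding; Kd per membrane lot was taken from Scatchard plots.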

The target of test [2] is T2, human recombinant 5-HT2A receptor (Homo sapiens, UniProt P28223).
T2 construct: expressed in transfected cells; host or cells: Jump-In HEK cells (membrane preparation)
T2 sequence (P28223 whole entry): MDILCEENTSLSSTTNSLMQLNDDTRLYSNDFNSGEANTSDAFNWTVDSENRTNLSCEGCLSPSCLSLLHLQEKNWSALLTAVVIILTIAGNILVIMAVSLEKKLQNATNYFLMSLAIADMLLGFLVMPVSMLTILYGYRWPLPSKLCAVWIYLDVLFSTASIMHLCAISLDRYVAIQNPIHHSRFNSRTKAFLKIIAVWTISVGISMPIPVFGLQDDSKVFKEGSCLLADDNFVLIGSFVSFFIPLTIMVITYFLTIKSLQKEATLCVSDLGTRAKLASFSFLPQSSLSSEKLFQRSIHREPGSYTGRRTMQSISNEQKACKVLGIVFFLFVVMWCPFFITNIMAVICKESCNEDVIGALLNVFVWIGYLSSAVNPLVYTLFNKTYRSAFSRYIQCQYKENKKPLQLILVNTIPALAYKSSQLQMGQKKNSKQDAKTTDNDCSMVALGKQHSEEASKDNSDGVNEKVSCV
As to the kind of experiment: Test Example 1-2: 5-HT2A receptor binding inhibition test ([3H]-Ketanserin; non-specific ligand Ketanserin). As to conditions: [3H]-Ketanserin; non-specific binding with 500 µmol/L Ketanserin; room temperature (25°C), 1.5 hours; read-out: h 5-HT2A Ki. Put shortly:
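Ki values were derived from dose-response inhibition of [3H]-ketanserin binding; nonspecific binding was set with 500 µmol/L ketanserin, and Kd was set for each membrane lot from Scatchard saturation plots. Incubation lasted 1.5 h at room temperature (25 °C). Bound radioligand was harvested on Tris-HCl (pH 7.4)-presoaked filters and counted.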

Consider `COCc1nc(C)c(-c2cc(Nc3ncc(-n4ccc(C(F)(F)F)n4)cc3Cl)ncc2OCCO)c(C)n1` [Compound I-325], for which the Ki (as a rule, a measure of affinity in units of concentration, obtained from inhibition or displacement) in test [1] stood at 1.17 nM; in test [2] it was 1.6 nM.
The corresponding values for `Cn1ncc(Br)c1-c1cc(Nc2ncc(OC(F)F)cc2F)ncc1OCCO` [Compound I-299] are 0.352 nM and 0.271 nM.
The corresponding values for `Cc1cc(Cl)cnc1Nc1ccc(OCCO)c(-c2c(Br)cnn2C)c1` [Compound I-341] are 0.14 nM and 0.303 nM.
The corresponding values for `COCc1nc(C)c(-c2cc(Nc3ncc(-c4ccc(OC(F)F)cc4)cc3Cl)ncc2OCCO)c(C)n1` [Compound I-261] are 0.482 nM and 0.608 nM.
Take `Cn1ncc(C#N)c1-c1nc(Nc2ccc(-c3ccc(Cl)cc3)cn2)c(F)cc1OCCO` [Compound I-191]: the Ki is 5.29 nM in test [1] and 0.473 nM in test [2].
For the molecule `COCCOc1nc(C)c(-c2cc(Nc3ncc(C(F)(F)F)cc3Cl)ncc2OCCO)c(C)n1` [Compound I-213], the Ki in test [1] stood at 4.07 nM; in test [2], 1.26 nM.
Consider `COCc1nc(C)c(-c2cc(Nc3ncc(-c4ccc(Cl)c(F)c4)cc3Cl)ncc2OCCO)c(C)n1` [Compound I-234], for which the Ki in test [1] was 0.167 nM; in test [2], 0.525 nM.
`Cc1nc(C)c(-c2cc(Nc3ccc(-c4ccc(C(F)(F)F)cn4)cn3)ncc2OCCO)c(C)n1` [Compound I-314]: the Ki in test [1] was 3.68 nM; in test [2] it was 0.902 nM.
The corresponding values for `Cn1ncc(Br)c1-c1nc(Nc2ccc(C(F)(F)F)c(Cl)c2)ncc1OCCO` [Compound I-351] are 1.77 nM and 0.242 nM.
The corresponding values for `Cc1nc(COC(F)F)nc(C)c1-c1cc(Nc2ncc(C(F)(F)F)cc2Cl)ncc1OCCO` [Compound I-203] are 1.82 nM and 1.97 nM.
The corresponding values for `Cc1nc(C)c(-c2cc(Nc3ccc(-c4ccc(C(F)(F)F)cc4)cn3)ncc2OCCO)c(C)n1` [Compound I-303] are 0.278 nM and 0.379 nM.
`Cn1ncc(Br)c1-c1cc(Nc2nc3ccccc3s2)ncc1OCCO` [Compound I-285]: the figures for the Ki in test [1] and in test [2] were 7.69 nM and 0.299 nM, respectively.
`Cn1ncc(Br)c1-c1nc(Nc2ccc(C(F)(F)F)cn2)c(Cl)cc1OCCO` [Compound I-387]: the results for the Ki in test [1] and in test [2] were 3.82 nM and 0.318 nM, respectively.
With `OCCOc1cnc(Nc2ncc(C(F)(F)F)cc2F)cc1-c1cccnc1C(F)F` [Compound I-366], the values for the inhibitory constant (Ki) in test [1] and in test [2] were 59.1 nM and 2.19 nM, respectively.
As for `Cn1ncc(Br)c1-c1nc(Nc2ccc(C(F)(F)F)cn2)c(F)cc1OCCO` [Compound I-279], the figures for the Ki in test [1] and in test [2] were 1.94 nM and 0.306 nM, respectively.
Take `Cn1ncc(C#N)c1-c1cc(Nc2ncc(OC(F)(F)F)cc2Cl)ncc1OCCO` [Compound I-187]: the Ki in test [1] is 2.9 nM; in test [2], 0.183 nM.
`Cc1nc(C)c(-c2cc(Nc3ncc(OC(F)(F)F)cc3C)ncc2OCCO)c(C)n1` [Compound I-181]: the Ki in test [1] amounted to 3.62 nM; in test [2], 0.984 nM.
The corresponding values for `Cc1nc(C)c(-c2cc(Nc3ccc(-c4ccccc4)cn3)ncc2OCCO)c(C)n1` [Compound I-298] are 3.15 nM and 0.303 nM.
In the case of `COCc1nc(C)c(-c2cc(Nc3ncc(OCC(F)(F)C(F)F)cc3Cl)ncc2OCCO)c(C)n1` [Compound I-333], the values for the inhibitory constant (Ki) in test [1] and in test [2] were 4.19 nM and 9.02 nM, respectively.
As for `COCc1nc(C)c(-c2cc(Nc3ncc(-c4cnn(C(F)F)c4)cc3Cl)ncc2OCCO)c(C)n1` [Compound I-237], the Ki came out at 7.37 nM in test [1] and 7.43 nM in test [2].
Regarding `Cc1nc(C(F)F)nc(C)c1-c1cc(Nc2ncc(C(F)(F)F)cc2Cl)ncc1OCCO` [Compound I-223], the inhibitory constant (Ki) is 9.21 nM in test [1] and 0.877 nM in test [2].
Turning to `Cc1nc(C)c(-c2cc(Nc3ccc(-c4ccc(C(F)(F)F)nc4)cn3)ncc2OCCO)c(C)n1` [Compound I-315], the Ki in test [1] was 1.05 nM; in test [2] it was 1.21 nM.
The corresponding values for `COCc1nc(C)c(-c2cc(Nc3ncc(-c4cnn(C(F)(F)F)c4)cc3Cl)ncc2OCCO)c(C)n1` [Compound I-243] are 2.53 nM and 3.58 nM.
`Cc1nc(C)c(-c2cc(Nc3ccc(-c4ccc(Cl)cc4)cn3)ncc2OCCO)c(C)n1` [Compound I-310]: the Ki in test [1] is 0.608 nM; in test [2], 0.194 nM.
The corresponding values for `Cn1ncc(Br)c1-c1cc(Nc2nc3ccc(F)cc3s2)c(F)cc1OCCO` [Compound I-405] are 0.293 nM and 0.274 nM.
The corresponding values for `Cn1ncc(Br)c1-c1nc(Nc2ccc(Cl)c(F)c2)ncc1OCCO` [Compound I-345] are 3.12 nM and 0.257 nM.
The corresponding values for `Cn1ncc(Br)c1-c1cc(Nc2nc3ccc(F)cc3s2)c(Cl)cc1OCCO` [Compound I-408] are 1.89 nM and 0.384 nM.
On to `COCc1nc(C)c(-c2cc(Nc3ncc(-c4ncc(F)cc4F)cc3Cl)ncc2OCCO)c(C)n1` [Compound I-252], for which the Ki stood at 3.17 nM in test [1] and 3.95 nM in test [2].
For `Cn1ncc(Br)c1-c1nc(Nc2nc3ccc(F)cc3s2)c(F)cc1OCCO` [Compound I-388], the figures for the Ki in test [1] and in test [2] were 7.66 nM and 0.366 nM, respectively.
Take `O=C1NCc2c1cncc2-c1cc(Nc2ncc(C(F)(F)F)cc2F)ncc1OCCO` [Compound I-368]: the results for the inhibition constant (Ki) in test [1] and in test [2] were 51.2 nM and 2.13 nM, respectively.
As for `Cn1ncc(Cl)c1-c1nc(Nc2ccc(C(F)(F)F)cn2)c(F)cc1OCCO` [Compound I-385], the figures for the inhibition constant (Ki) in test [1] and in test [2] were 5.08 nM and 0.226 nM, respectively.
Regarding `Cc1ncnc(C)c1-c1cc(Nc2ncc(C(F)(F)F)cc2Cl)ncc1OCCO` [Compound I-202], the Ki came out at 9.12 nM in test [1] and 0.828 nM in test [2].
The corresponding values for `Cn1ncc(Cl)c1-c1cc(Nc2ccc(OCC(F)(F)F)cn2)ncc1OCCO` [Compound I-313] are 1.38 nM and 0.198 nM.
As to `CCCc1nc(C)c(-c2cc(Nc3ncc(C(F)(F)F)cc3Cl)ncc2OCCO)c(C)n1` [Compound I-222], the figures for the Ki in test [1] and in test [2] were 1.91 nM and 1.35 nM, respectively.
With `Cn1ncc(Br)c1-c1cc(Nc2nc3ccccc3o2)ncc1OCCO` [Compound I-291], the Ki is 16.4 nM in test [1] and 0.423 nM in test [2].
The corresponding values for `O=C1NCCc2c1cccc2-c1cc(Nc2ncc(C(F)(F)F)cc2F)ncc1OCCO` [Compound I-227] are 26.7 nM and 1.21 nM.
The corresponding values for `Cn1ncc(Cl)c1-c1cc(Nc2ncc(OC(F)(F)F)cc2F)ncc1OCCO` [Compound I-305] are 0.585 nM and 0.188 nM.
Regarding `Cc1cc(Cl)ccc1Nc1ncc(OCCO)c(-c2c(Br)cnn2C)n1` [Compound I-343], the Ki in test [1] was determined as 2.42 nM; in test [2], 0.184 nM.
The corresponding values for `Cn1ncc(F)c1-c1cc(Nc2ccc(C(F)(F)F)cn2)c(F)cc1OCCO` [Compound I-170] are 5.45 nM and 0.212 nM.
For `Cc1nc(C)c(-c2cc(Nc3ncc(Cl)cc3C)c(F)cc2OCCO)c(C)n1` [Compound I-173], the Ki in test [1] turned out to be 5.11 nM; in test [2], 1.42 nM.
The corresponding values for `Cn1ncc(Cl)c1-c1cc(Nc2ccc(OCC(F)F)cn2)ncc1OCCO` [Compound I-320] are 7.91 nM and 0.297 nM.
The corresponding values for `Cc1nc(C)c(-c2cc(Nc3ncc(OC(F)(F)F)cc3F)ncc2OCCO)c(C)n1` [Compound I-300] are 7.17 nM and 1.33 nM.
Regarding `COCc1nc(C)c(-c2cc(Nc3ncc(-c4ncc(F)cn4)cc3Cl)ncc2OCCO)c(C)n1` [Compound I-249], the Ki in test [1] amounted to 4.29 nM; in test [2], 5.19 nM.
As to `COCc1nc(C)c(-c2nc(Nc3ccc(-c4ccc(C(F)(F)F)nc4)cn3)c(F)cc2OCCO)c(C)n1` [Compound I-365], the Ki in test [1] was found to be 1.98 nM; in test [2], 4.65 nM.
The corresponding values for `Cc1nc(C)c(-c2cc(Nc3ncc(C(F)(F)F)cc3F)ncc2O[C@H](C)CO)c(C)n1` [Compound I-361] are 18.3 nM and 2.4 nM.
